In US20050085557A1, “Therapeutic procedures” (priority 2003, published 2005):

How the values were obtained:
[1] = test system: human B-lymphocyte (WI-L2) cell line; test: Cytotoxicity assay (LDH release), WI-L2; format: cell-based; conditions: FIG. 6A; in this concentration range (0-100 μM)
Protocol: Cytotoxicity assays. WI-L2 human B-lymphocyte line, HAAE-1 human abdominal aortic endothelial line, MH-S murine alveolar macrophage line, and J774A.1 murine tissue macrophage line were obtained from the ATCC. Human aortic endothelial cells (HAEC) and human vascular smooth muscle cells (VSMS) were obtained from Cambrex Bio Science. Jurkat E6-IT-lymphocytes were kindly provided by Dr. J. Kaye (The Scripps Research Institute). Cells were cultured in ATCC-recommended media with 10% fetal calf serum. Cells were incubated in a controlled atmosphere at 37° C., with 5 or 7% CO2. For lactate dehydrogenase (LDH) release assays, adherent cells were harvested either by addition of 0.05% trypsin/EDTA or by scraping. The cells obtained were seeded onto 96-well microtiter plates (25,000 cells/well) and allowed to recover for 24-48 h. […] Cytotoxicity was then determined by measuring lactate dehydrogenase (LDH) release from cells in culture. […] 100% Cytotoxicity was defined as the maximum amount of LDH released by dead cells as shown by trypan blue exclusion, or the highest amount of LDH detected upon lysis of cells by 0.9% Triton X-100. The IC50 values were determined by comparison of the raw duplicate data for concentration versus cytotoxicity (%) to non-linear regression analysis (Hill plot) using Graphpad v3.0 software for Macintosh. […]

[2] = test system: T-lymphocyte cell line (Jurkat E6.1); test: Cytotoxicity assay (LDH release), Jurkat E6.1; format: cell-based; conditions: FIG. 6B; in this concentration range (0-100 μM)
Protocol: Cytotoxicity assays. WI-L2 human B-lymphocyte line, HAAE-1 human abdominal aortic endothelial line, MH-S murine alveolar macrophage line, and J774A.1 murine tissue macrophage line were obtained from the ATCC. Human aortic endothelial cells (HAEC) and human vascular smooth muscle cells (VSMS) were obtained from Cambrex Bio Science. […] Cells were cultured in ATCC-recommended media with 10% fetal calf serum. Cells were incubated in a controlled atmosphere at 37° C., with 5 or 7% CO2. For lactate dehydrogenase (LDH) release assays, adherent cells were harvested either by addition of 0.05% trypsin/EDTA or by scraping. The cells obtained were seeded onto 96-well microtiter plates (25,000 cells/well) and allowed to recover for 24-48 h. Cells were washed gently and media replaced with fresh media containing 5% fetal calf serum. […] Cytotoxicity was then determined by measuring lactate dehydrogenase (LDH) release from cells in culture. […] 100% Cytotoxicity was defined as the maximum amount of LDH released by dead cells as shown by trypan blue exclusion, or the highest amount of LDH detected upon lysis of cells by 0.9% Triton X-100. The IC50 values were determined by comparison of the raw duplicate data for concentration versus cytotoxicity (%) to non-linear regression analysis (Hill plot) using Graphpad v3.0 software for Macintosh. […]

[3] = test system: J774.1 macrophages; test: Lipid-loading assay (foam cell formation); format: cell-based, murine; conditions: LDL 100 μg/mL with compound (20 μM), 72 h, unactivated J774.1 macrophages
Protocol: Macrophages were first grown for 24 h in RPMI-1640 containing 10% fetal bovine serum and then incubated for 72 h in the same media containing LDL (100 μg/mL). Cells were fixed with 4% formaldehyde and stained with hematoxylin and oil red O such that lipid granules stained a darker red color. Magnification×100.
J774.1 macrophages were grown for 24 h in RPMI-1640 containing 10% fetal bovine serum. […] Cells were fixed with 4% formaldehyde and stained with hematoxylin and oil red O such that lipid granules stained a darker red color. Magnification×100.
Lipid-loading assay (foam cellformation). J774.1 macrophages were incubated in ATCC-recommended media containing 10% fetal bovine serum under a controlled atmosphere of 5 or 7% CO2 at 37° C., in 8-well chamber slides. […] At termination, cells were washed twice with PBS (pH 7.4). The cells were then fixed with 6% (v/v) paraformaldehyde in PBS for 30 minutes, rinsed with propylene glycol for 2 minutes and lipids were stained with 5 mg/ml Oil Red O for 8 minutes. The cells were counterstained with Harris' hematoxylin for 45 seconds, and background staining was removed with […] followed by washing once in PBS and once in tap water. […] The number of lipid-laden cells was scored out of a total of at least 100 cells counted in a single field in each slide, and expressed as a percentage of total cells. […]

[4] = molecular target: T1, LDL / apoB-100 (Homo sapiens, UniProt P04114); test: Circular dichroism of LDL secondary structure; format: biochemical; conditions: LDL 100 μg/ml, compound 10 μM, PBS pH 7.4, 37° C., 48 h; for random coil of LDL after incubation (circular dichroism): normal LDL 27±2%; for a helical structure of LDL after incubation (circular dichroism): normal LDL ~40±2%
T1 construct: Circular dichroism (CD) spectra of LDL (100 μg/ml)
Protocol: Circular dichroism. […] Spectra were recorded in the peptidic range (200-260 nm). To increase the signal-to-noise ratio, multiple spectra (three) were averaged for each measurement.

[5] = Aldolization of ketoaldehyde 4a with amino acids (1H NMR); format: physicochemical; conditions: DMSO-d6 (800 μl) and D2O (80 μl) without amino acid
Protocol: Aldolization of ketoaldehyde 4a with amino acids. […] To this solution was added 1 equivalent of either: a) L-proline, […] b) glycine, c) L-lysine hydrochloride or d) L-lysine ethyl ester dihydrochloride. At time points the samples were analyzed by ^1H NMR.

[6] = Aldolization of secoketoaldehyde 4a with atherosclerotic artery and blood fractions (1H NMR); format: in vitro ADME, human; conditions: lyophilized PBS
Protocol: Aldolization of secoketoaldehyde 4a with atherosclerotic artery and blood fractions. […] To this solution was added either a) atherosclerotic artery (2.1 mg) that had been homogenized in PBS (1 ml) in a tissue homogenizer and then lyophilized to dryness, b) lyophilized human blood (1 ml), c) lyophilized human plasma (1 ml) or d) PBS lyophilized (1 ml). At time points samples were removed and analyzed by ^1H NMR vide supra.

T1 sequence (P04114 28-4563, species assumed): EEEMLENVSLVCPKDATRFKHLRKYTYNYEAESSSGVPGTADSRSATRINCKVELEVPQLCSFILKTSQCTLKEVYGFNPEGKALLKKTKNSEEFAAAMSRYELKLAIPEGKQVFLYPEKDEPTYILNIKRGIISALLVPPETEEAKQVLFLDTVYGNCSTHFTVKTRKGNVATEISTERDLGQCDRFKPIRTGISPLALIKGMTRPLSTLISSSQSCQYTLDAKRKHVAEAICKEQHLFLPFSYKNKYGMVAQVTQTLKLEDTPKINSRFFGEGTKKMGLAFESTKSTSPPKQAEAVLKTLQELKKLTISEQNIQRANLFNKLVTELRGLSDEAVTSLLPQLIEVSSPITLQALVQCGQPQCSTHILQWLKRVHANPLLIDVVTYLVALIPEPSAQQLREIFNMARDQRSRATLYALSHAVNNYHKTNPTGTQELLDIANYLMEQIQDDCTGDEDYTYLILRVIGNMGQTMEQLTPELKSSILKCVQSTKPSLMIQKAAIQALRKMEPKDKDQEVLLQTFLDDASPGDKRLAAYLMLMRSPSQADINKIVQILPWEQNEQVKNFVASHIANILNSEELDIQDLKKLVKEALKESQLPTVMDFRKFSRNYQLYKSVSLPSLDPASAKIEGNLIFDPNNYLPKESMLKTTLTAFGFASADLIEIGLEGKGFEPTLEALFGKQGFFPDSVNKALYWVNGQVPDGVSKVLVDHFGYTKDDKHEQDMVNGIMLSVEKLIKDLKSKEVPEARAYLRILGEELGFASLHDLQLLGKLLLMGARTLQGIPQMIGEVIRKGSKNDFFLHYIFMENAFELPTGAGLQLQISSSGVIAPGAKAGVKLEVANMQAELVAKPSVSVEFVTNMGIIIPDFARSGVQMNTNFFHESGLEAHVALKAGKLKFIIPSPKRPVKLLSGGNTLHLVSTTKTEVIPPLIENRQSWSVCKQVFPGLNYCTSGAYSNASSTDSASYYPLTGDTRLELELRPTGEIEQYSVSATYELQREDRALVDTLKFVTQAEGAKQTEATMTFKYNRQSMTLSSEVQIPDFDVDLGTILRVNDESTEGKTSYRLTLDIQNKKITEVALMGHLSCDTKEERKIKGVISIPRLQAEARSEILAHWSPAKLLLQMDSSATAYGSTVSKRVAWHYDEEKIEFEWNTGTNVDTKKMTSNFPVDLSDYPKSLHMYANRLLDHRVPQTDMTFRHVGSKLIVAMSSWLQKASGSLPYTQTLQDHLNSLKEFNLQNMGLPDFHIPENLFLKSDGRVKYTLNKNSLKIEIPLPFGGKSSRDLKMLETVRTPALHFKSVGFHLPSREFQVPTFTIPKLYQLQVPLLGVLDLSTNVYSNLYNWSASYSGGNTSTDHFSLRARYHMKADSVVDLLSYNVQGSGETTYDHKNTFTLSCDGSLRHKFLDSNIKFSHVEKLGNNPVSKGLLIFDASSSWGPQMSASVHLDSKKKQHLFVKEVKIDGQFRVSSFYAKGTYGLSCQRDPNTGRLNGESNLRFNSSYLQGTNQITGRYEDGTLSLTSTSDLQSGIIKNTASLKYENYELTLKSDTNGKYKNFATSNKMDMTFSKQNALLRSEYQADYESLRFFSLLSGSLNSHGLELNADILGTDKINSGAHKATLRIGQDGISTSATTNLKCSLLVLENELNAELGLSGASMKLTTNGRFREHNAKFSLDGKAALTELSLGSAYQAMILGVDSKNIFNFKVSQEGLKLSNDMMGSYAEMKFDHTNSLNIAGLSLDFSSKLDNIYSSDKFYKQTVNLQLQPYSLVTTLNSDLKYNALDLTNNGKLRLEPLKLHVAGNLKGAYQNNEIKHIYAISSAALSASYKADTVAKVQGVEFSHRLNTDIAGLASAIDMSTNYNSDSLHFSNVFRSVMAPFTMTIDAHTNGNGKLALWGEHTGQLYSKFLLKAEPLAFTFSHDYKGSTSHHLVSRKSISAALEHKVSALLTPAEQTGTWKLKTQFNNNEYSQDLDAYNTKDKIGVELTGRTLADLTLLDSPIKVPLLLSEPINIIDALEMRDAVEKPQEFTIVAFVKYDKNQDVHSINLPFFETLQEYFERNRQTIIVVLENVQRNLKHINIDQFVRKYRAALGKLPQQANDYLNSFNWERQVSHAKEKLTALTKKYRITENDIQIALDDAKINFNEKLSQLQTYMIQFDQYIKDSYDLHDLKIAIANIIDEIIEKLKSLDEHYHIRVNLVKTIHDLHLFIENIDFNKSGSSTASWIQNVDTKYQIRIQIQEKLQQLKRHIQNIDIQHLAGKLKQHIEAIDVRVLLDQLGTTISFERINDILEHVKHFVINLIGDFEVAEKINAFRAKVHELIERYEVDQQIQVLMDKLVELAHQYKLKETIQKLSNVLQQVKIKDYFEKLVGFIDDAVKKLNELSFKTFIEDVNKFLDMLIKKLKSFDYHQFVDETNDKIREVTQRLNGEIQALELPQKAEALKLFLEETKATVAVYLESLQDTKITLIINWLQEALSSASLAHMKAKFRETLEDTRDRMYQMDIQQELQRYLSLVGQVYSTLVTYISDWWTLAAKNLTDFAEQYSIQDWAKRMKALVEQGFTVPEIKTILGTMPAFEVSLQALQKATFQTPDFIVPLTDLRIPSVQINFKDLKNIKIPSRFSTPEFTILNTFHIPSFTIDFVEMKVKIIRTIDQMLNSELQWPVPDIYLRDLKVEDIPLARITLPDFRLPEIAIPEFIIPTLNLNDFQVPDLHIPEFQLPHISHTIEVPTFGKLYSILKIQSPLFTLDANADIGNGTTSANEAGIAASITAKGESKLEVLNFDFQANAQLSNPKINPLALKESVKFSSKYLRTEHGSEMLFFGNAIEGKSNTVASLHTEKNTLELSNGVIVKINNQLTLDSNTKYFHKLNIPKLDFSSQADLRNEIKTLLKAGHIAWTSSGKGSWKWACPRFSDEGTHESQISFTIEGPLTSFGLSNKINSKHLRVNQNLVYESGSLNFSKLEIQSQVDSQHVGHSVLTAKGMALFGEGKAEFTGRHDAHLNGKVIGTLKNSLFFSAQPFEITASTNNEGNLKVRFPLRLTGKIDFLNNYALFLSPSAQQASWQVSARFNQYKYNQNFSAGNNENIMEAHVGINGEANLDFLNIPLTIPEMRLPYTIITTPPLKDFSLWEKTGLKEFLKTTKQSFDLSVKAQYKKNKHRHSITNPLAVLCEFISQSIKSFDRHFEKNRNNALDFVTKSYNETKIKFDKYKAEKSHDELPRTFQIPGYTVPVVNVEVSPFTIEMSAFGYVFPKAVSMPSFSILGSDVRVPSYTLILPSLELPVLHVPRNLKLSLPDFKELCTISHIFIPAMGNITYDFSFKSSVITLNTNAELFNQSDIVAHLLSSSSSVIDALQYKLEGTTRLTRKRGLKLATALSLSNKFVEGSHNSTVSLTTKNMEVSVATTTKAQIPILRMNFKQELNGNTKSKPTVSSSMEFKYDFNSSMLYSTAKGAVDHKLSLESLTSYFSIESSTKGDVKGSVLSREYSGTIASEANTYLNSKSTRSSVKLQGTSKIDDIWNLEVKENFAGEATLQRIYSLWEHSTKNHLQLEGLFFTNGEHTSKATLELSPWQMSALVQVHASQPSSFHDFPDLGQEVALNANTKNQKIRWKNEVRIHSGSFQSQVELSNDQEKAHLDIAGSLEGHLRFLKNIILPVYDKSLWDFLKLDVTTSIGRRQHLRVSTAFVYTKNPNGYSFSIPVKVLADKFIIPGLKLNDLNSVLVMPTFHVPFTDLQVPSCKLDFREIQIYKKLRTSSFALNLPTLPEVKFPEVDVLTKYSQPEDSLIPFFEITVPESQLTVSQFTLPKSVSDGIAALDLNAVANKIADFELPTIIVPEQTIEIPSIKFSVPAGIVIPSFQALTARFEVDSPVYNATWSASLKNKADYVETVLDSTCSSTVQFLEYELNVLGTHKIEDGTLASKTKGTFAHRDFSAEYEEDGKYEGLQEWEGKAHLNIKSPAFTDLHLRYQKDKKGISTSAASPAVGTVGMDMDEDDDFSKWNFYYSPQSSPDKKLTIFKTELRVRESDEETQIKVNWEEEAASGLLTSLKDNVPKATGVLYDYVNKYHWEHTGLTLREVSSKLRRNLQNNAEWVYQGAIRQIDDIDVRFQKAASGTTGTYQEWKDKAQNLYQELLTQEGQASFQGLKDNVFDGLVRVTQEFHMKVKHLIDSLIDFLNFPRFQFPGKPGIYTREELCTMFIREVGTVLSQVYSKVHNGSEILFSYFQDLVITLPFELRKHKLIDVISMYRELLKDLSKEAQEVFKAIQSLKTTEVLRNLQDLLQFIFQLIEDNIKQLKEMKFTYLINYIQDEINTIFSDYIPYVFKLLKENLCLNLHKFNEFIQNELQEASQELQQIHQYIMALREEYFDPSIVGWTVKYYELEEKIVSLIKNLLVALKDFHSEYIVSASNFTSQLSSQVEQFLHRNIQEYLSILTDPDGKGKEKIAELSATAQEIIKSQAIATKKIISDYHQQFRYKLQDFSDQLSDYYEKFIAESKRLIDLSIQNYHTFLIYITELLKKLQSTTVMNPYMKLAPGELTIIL

Structure (SMILES) | cytotoxicity against B-cell (WI-L2) cell line [1] | cytotoxicity against T-cell (Jurkat) cell line [2] | lipid-loading of macrophages / foam cell formation [3] | random coil of LDL after incubation (circular dichroism) [4] | a helical structure of LDL after incubation (circular dichroism) [4] [%] | aldolization of 4a (background) [5] | aldolization of 4a (background) [6]
CC(C)CCC[C@@H](C)[C@H]1CC[C@H]2[C@@H]3CC=C4C[C@@H](O)CC[C@]4(C)[C@H]3CC[C@]12C [compound 3, cholesterol] | No cytotoxicity | No cytotoxicity | – | – | – | – | –
CC(C)CCC[C@@H](C)[C@H]1CCC2C(CC=O)C([C@@]3(C)CC[C@H](O)CC3=O)CC[C@@]21C (stereo partly drawn) [4a, 3β-Hydroxy-5-oxo-5,6-secocholestan-6-al] | – | – | foam cells began to appear | ~39±2% | ~23±5 | no aldolization | no aldolization
CC(C)CCC[C@@H](C)[C@H]1CCC2C3C(CC[C@@]21C)[C@@]1(C)CC[C@H](O)C[C@@]1(O)[C@@H]3C=O (stereo partly drawn) [5a, 3β-Hydroxy-5β-hydroxy-B-norcholestane-6β-carboxaldehyde] | – | – | foam cells began to appear | 32±+4% | ~20±2 | – | –
